# Test results taken from patent US9248098B2, “Treating or preventing pain using spicamycin derivatives” (DARA BIOSCIENCES, INC., priority 2008, dated 2016).
# Columns and labels:
# [1] = system: patients with end-stage cancer experiencing neuropathic pain; assay: Phase 2 placebo-controlled study of KRN5500, efficacy on neuropathic pain; assay type: in vivo, human; settings: for median decrease from baseline in pain intensity, clinic numeric rating scale (NRS) scores: placebo median change zero
# Experimental: (§1) A Phase 2, multicenter, placebo-controlled, randomized, parallel group study was carried out to evaluate the safety, efficacy, and dose-response of KRN5500 in patients with end-stage cancer experiencing neuropathic pain. Nineteen (19) patients were enrolled in the study. Thirteen were randomized to receive KRN5500 and 6 were randomized to receive placebo. Due to a randomization error at an investigative site, one patient randomized to receive KRN5500 actually received placebo. Of the 12 patients who received KRN5500, 3 (25%) completed all dosing visits. Two (28.6%) of the patients who received placebo completed all dosing visits. No patients were lost to follow up and no patients died.
# The treatment groups were similar in demographics, with the majority of patients being Caucasian (73.7%) and approximately 50/50 in distribution by gender. The median age of patients enrolled was 62 years, ranging from 41 to 84 years. The average body surface area (BSA) was 1.8 m^2 ranging from 0.95 to 2.27 m^2. The majority of the patient population had allodynia (84.2%). This and other baseline characteristics of neuropathic pain were consistent between the treatment groups.
# (§2) The median duration of exposure to KRN5500 was 40 days compared to 29 days for placebo. On average, KRN5500 patients took 5.3 doses while placebo patients took 4.4 doses. The highest dose received was 2.2 mg/m^2. Seven (58.3%) of KRN5500 patients were exposed to at least one dose at this level, while 4 (57.1%) of Placebo patients were exposed to at least one dose at this level.
# Pain intensity, based on clinic numeric rating scale (NRS) scores, was analyzed for both the Intent-to-treat (ITT) and modified efficacy (ME) populations. […] Since more than 80% of patients had allodynia as a baseline characteristic, results from the analysis of the subset of patients with allodynia present at baseline was consistent with the overall analysis. Too few patients presented without allodynia at baseline to adequately draw conclusions in this subset. […] Three (25%) of the KRN5500 treated patients achieved 33% or greater pain decrease and none of the placebo patients achieved this level.
# [2] = system: patients with end-stage cancer experiencing neuropathic pain; assay: Phase 2 placebo-controlled study of KRN5500, safety; assay type: in vivo, human
# Experimental: as §1, §2
# All patients treated with KRN5500 (100%) had at least one treatment emergent adverse event, compared to 86% (6 of 7 patients) in the Placebo treated group. Events recorded by the KRN5500 patients tended to be more severe (84% moderate or severe in KRN5500 vs. 71% in Placebo). Events were typically gastrointestinal disorders such as nausea or vomiting and were more frequently considered to be related to treatment in the KRN5500 group than in the Placebo group (92% vs. 14%). Three patients (25%) in the KRN5500 group and 1 (14%) patient in the Placebo group experienced serious adverse events (AEs). […] Two patients treated with KRN5500 withdrew from the study due to nausea and vomiting which were thought to be related to study drug. One patient treated with KRN5500 withdrew due to convulsions not thought to be related to study drug. One patient treated with Placebo withdrew from the study due to a stroke not related to study drug.
# [3] = system: rat models of neuropathic pain; settings: Abdi et al. 2000; Kobierski et al. 2003; cited from earlier work
# [4] = brief pain inventory, no change in placebo
# [5] = neuropathic pain questionnaire, versus placebo
# [6] = of 12 patients who received KRN5500
smiles,measurement,setting,value
"CCCCCCCCC/C=C/C=C/C(=O)NCC(=O)N[C@@H]1[C@@H](O)[C@@H](O)[C@@H](Nc2ncnc3[nH]cnc23)O[C@H]1[C@@H](O)CO [KRN5500, 6-[4-deoxy-4-[(2E,4E)-tetradecadienoylglycyl}amino-L-glycero-β-L-mannoheptopyranosyl]amino-9H-purine]",aggregated physical and mental SF-12 scores,[1]; 1 week post-dose follow up,basically unchanged from baseline
same,dose response at last dose received (Endpoint),[1]; ITT or ME population analysis,no trend for dose response
same,"median decrease from baseline in pain intensity, clinic numeric rating scale (NRS) scores",[1]; Intent-to-treat (ITT) population,22%
same,significance of decrease in pain intensity (clinic NRS),"[1]; Wilcoxon Rank Sum test of the medians, ME analysis, p=0.03",statistically significant decrease
same,dynamic and cold allodynia assessment,"[1]; affected and unaffected areas, versus placebo",larger decrease in pain associated with both touch and cold
same,BPI: aggregate measure of pain's interference in the last 24 hours,[1]; [4],decreases from baseline
same,BPI: patient perception of pain at its least in the past 24 hours,[1]; [4],decreases from baseline
same,patients with a 20% or greater reduction in pain intensity,"[1]; diary endpoint, 5 of KRN5500 treated patients, placebo 1 (14%)",42%
same,"median decrease from baseline in pain intensity, clinic numeric rating scale (NRS) scores",[1]; modified efficacy (ME) population,23.6%
same,"NPQ individual questions: burning pain, electric pain and freezing pain",[1]; [5],decreases from baseline in favor of KRN5500
same,"NPQ questions: sensitivity to touch, shooting pain, numbness, tingling, or squeezing pain",[1]; [5],no different between treatment groups
same,NPQ: increased pain due to touch or to weather changes,[1]; [5],no treatment differences
same,"best pain intensity response (largest decrease in pain) recorded in clinic over all doses, median decrease",[1]; placebo showed no decrease,29.3%
same,median decrease in pain intensity based on diary data,[1]; placebo showed no decrease,16.4%
same,SPQ: brush/touch induced pain scores,[1]; supplemental pain questionnaire,greater decrease in pain scores than the Placebo treated patients
same,SPQ: cold induced pain,"[1]; supplemental pain questionnaire, at endpoint, both groups decreased",no treatment differences
same,patients achieving 33% or greater pain decrease,"[1]; three KRN5500 treated patients, none of the placebo patients",25%
same,Karnofsky Performance Status (KPS),"[1]; throughout the study, baseline median 75",did not change throughout the study
same,incidence of nausea and vomiting,[2]; generally considered related to study drug,High incidences of nausea and vomiting
same,deaths,[2]; in vivo,No deaths were observed
same,relation of serious AEs to study drug,[2]; in vivo,None were considered to be related to study drug
same,patients withdrawn due to convulsions not thought to be related to study drug,[2]; [6],One
same,patients withdrawn due to nausea and vomiting thought to be related to study drug,[2]; [6],Two
same,adverse events moderate or severe,[2]; placebo 71%,84%
same,patients with at least one treatment emergent adverse event,[2]; placebo 86% (6 of 7 patients),100%
same,patients experiencing serious adverse events (AEs),"[2]; three patients, placebo 1 (14%)",25%
same,"clinically significant laboratory abnormalities, changes in vital signs, physical examinations, or ECGs",[2]; throughout the study,not observed
same,adverse events considered to be related to treatment,"[2]; typically gastrointestinal disorders such as nausea or vomiting, placebo 14%",92%
same,efficacy in rat models of neuropathic pain,[3],effective
